Reference: publication PMC3412845, “Waking Action of Ursodeoxycholic Acid (UDCA) Involves Histamine and GABAA Receptor Block” (PLoS ONE, 2012)

Tests used:
TMN neurons = assay: Firing of TMN neurons recorded in hypothalamic slices; assay type: cell-based, mouse; conditions: UDCA 100 µM, n = 10
Protocol: (§1) Recordings from histaminergic neurons in male Wistar rat (22–26 day old) or 30–60 day old mouse (SV129, histidine decarboxylase deficient HDC−/− or their wild type littermates) hypothalamic slices were performed as previously described. Slices were obtained between 9 and 11 a.m. In the beginning of whole-cell voltage clamp recordings TMN neurons were identified with the help of DIC microscopy and electrophysiological criteria as previously described. Inhibitory postsynaptic currents (IPSCs) were evoked by local stimulation through a bipolar stainless-steel stimulating electrode (50 µm; WPI, UK). The stimulation of axonal endings coming to TMN from ventrolateral preoptic area (VLPO) was done as described in [22]. […] Individual neurons were separated by vibrodissociation after brief preincubation with papain from the hypothalamic slices of mice or rats and identified as TMN neurons according to their size and shape. Identification was confirmed post hoc with the single-cell RT-PCR (all data presented in the manuscript were obtained from histidine decarboxylase-expressing neurons), [40]. TMN neurons from HDC−/− mice were identified by the expression of peripherin [16]. […] Membrane potentials were not corrected for liquid junction potential (5.6 mV, calculated with LJPCalc, Barry, 1994). […]

[1] = system: cultured hypothalamic neurons; assay: Microelectrode array (MEA) recordings of cultured hypothalamic neurons; assay type: cell-based, mouse
Protocol: Primary dissociated cultures of posterior hypothalamus were prepared from newborn mice according to the protocols previously described, [43]. […] Recordings were done between 11th-21st day after plating. […] Signals from all 60 electrodes were simultaneously sampled at 25 kHz, visualized and stored using the standard software […] provided by Multi Channel Systems. Spike detection and analysis was performed offline with the software […] (RESULT Medizinische […], Germany), which uses the agreement coefficient “Cohen's kappa” (κ) to assess the degree of spike and burst synchrony for selected pairs of electrodes. […] In order to describe the distribution of kappa across the whole MEA, we calculated the mean of all kappa-values obtained for pairs of “active” electrodes. At the beginning of experiments the basal medium was replaced by a magnesium-free HEPES-based recording solution (see above) and measurements were started after a 20 min adaptation phase. Every measurement comprised three recordings - control, test substance and washout (second control) - each two minutes long and separated by an intermediate period of 30 seconds.

[2] = system: GABAA receptors of HDC−/− TMN neurons; assay: GABA-evoked whole-cell currents in TMN neurons from HDC−/− mice; assay type: cell-based, mouse; conditions: read-out: IC50 of inhibition of maximal GABA (0.5 mM) responses; adult HDC−/− mice, n = 5
Protocol: Recordings from histaminergic neurons in male Wistar rat (22–26 day old) or 30–60 day old mouse (SV129, histidine decarboxylase deficient HDC−/− or their wild type littermates) hypothalamic slices were performed as previously described. Slices were obtained between 9 and 11 a.m. In the beginning of whole-cell voltage clamp recordings TMN neurons were identified with the help of DIC microscopy and electrophysiological criteria as previously described. Inhibitory postsynaptic currents (IPSCs) were evoked by local stimulation through a bipolar stainless-steel stimulating electrode (50 µm; WPI, UK). The stimulation of axonal endings coming to TMN from ventrolateral preoptic area (VLPO) was done as described in [22]. […] Individual neurons were separated by vibrodissociation after brief preincubation with papain from the hypothalamic slices of mice or rats and identified as TMN neurons according to their size and shape. Identification was confirmed post hoc with the single-cell RT-PCR (all data presented in the manuscript were obtained from histidine decarboxylase-expressing neurons), [40]. TMN neurons from HDC−/− mice were identified by the expression of peripherin [16]. Whole-cell voltage-clamp recordings from isolated neurons were done with an EPC-9 amplifier and TIDA for Windows (HEKA, Lambrecht, Germany) at room temperature. Membrane potentials were not corrected for liquid junction potential (5.6 mV, calculated with LJPCalc, Barry, 1994). The intracellular solution was composed of (in mM) 140 KCl, 2 MgCl2, 0.5 CaCl2, 5 EGTA, 2 ATP and 10 HEPES (pH 7.2 adjusted with NaOH). A fast perfusion technique was used for application of ligands and modulators of fast ionotropic receptors, [41]. […] EC50 is the ligand concentration producing a half-maximal response, [ligand] is ligand concentration, and n is the Hill slope. Hill coefficients were obtained from the slope of the log/log plot of the dose-response curves. […] Steady-state amplitudes of the responses were used for the construction of dose-response plots if not mentioned otherwise.

GABAA receptor = assay: Voltage dependence of GABAAR block (Woodhull analysis); assay type: cell-based
Protocol: Voltage dependence of GABAAR block by UDCA was analysed according to the method of Woodhull, which provides a means of calculating the fraction of the transmembrane field sensed by charged blocking ligand at its acceptor site.

AMPA-receptor = assay: Kainate-evoked AMPA-receptor mediated currents in isolated neurons; assay type: cell-based
Protocol: as §1

α1β3 GABAA receptors = target: T1, α1β3 GABAA receptors (UniProt P28472+P62813); assay: Patch-clamp of recombinant α1β3 GABAAR in HEK293 cells; assay type: cell-based, rat α1, human β3
T1 construct: expressed in transfected cells; host or cells: HEK293
T1 sequence (P62813 28-455): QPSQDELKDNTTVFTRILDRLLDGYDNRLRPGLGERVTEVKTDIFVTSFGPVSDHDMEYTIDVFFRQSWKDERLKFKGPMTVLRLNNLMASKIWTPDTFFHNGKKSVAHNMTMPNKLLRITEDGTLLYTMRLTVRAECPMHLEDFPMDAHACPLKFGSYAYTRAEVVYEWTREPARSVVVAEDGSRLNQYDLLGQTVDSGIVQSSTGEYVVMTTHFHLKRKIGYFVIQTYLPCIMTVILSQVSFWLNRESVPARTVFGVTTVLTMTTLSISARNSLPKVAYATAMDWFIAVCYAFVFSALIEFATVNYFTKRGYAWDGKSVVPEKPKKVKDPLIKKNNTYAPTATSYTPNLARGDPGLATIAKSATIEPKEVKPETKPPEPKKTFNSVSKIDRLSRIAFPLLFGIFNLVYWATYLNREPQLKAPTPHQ
T1 sequence (P28472 26-473): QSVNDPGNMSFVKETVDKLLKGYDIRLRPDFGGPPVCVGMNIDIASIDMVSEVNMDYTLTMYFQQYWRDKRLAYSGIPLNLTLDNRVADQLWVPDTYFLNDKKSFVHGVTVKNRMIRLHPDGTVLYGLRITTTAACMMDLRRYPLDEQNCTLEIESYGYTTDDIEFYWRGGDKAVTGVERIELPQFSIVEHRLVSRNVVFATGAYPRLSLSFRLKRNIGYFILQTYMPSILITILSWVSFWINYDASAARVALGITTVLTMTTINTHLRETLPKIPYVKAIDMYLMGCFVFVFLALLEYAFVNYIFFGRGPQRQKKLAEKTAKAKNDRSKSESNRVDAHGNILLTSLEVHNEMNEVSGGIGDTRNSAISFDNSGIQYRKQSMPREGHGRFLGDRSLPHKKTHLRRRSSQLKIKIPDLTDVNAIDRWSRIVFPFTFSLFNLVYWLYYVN
Protocol: (§2) HEK 293 cells were obtained from DSM (Deutsche Sammlung von Mikroorganismen und Zellkulturen GmbH, DSM, Braunschweig). They were grown and maintained according to published standard protocols. Briefly, cells were grown in minimal essential medium supplemented with 10% fetal bovine serum, 100units/ml penicillin and streptomycin and 2 mM L-glutamine and splitted once per week. Semiconfluent cells were transfected on the third day after splitting with the help of Lipofectamine 2000 (Invitrogen), recordings were done 48–72 hrs after transfection.
(§3) The GABAAR subunit cDNAs, generously donated by G.Gisselmann (rat α1, mouse γ2L, rat β1, β2 and human β3 [26]) and J.H. Steinbach (rat α1V256S [28] and rat α1Q241L [44]), were subcloned into pcDNA3 (Invitrogen, Karlsruhe, Germany) and applied in a ratio 1∶1∶1 for the α1βxγ2L receptor and 1∶1 for α1β3 or β3γ2L receptors. […] For each receptor type patch clamp recordings were obtained from at least three separate transfections. Whole-cell patch clamp recordings were done in a similar extracellular solution as for the native cells (see above) except that the concentration of MgCl2 was reduced to 1.2 mM. Intracellular electrodes contained 140 mM CsCl (instead of KCl), pH adjusted with CsOH. The voltage was held at −40 mV.

[3] = target: T2, homopentameric β3 GABAA receptors (Homo sapiens, UniProt P28472); assay: Patch-clamp of β3 homopentameric receptors in HEK293 cells, histamine-evoked currents; assay type: cell-based; conditions: histamine 5 mM
T2 construct: expressed in transfected cells; host or cells: HEK293
T2 sequence (P28472 26-473): as above
Protocol: as §2, §3

[4] = target: T3, β3 homopentameric GABAA receptors (Homo sapiens, UniProt P28472); assay: Block of spontaneous openings of β3 homopentameric receptors (outward shift of baseline current); assay type: cell-based
T3 construct: expressed in transfected cells; host or cells: HEK293
T3 sequence (P28472 26-473): as above
Protocol: as §2, §3

α1β1γ2L GABAA receptors = target: T4, α1β1γ2L GABAA receptors (UniProt P15431+P22723+P62813); assay: Patch-clamp of recombinant α1β1γ2L GABAAR in HEK293 cells; assay type: cell-based, rat α1, rat β1, mouse γ2L
T4 construct: expressed in transfected cells; host or cells: HEK293
T4 sequence (P62813 28-455): as the sequence (P62813 28-455) above
T4 sequence (P15431 26-474): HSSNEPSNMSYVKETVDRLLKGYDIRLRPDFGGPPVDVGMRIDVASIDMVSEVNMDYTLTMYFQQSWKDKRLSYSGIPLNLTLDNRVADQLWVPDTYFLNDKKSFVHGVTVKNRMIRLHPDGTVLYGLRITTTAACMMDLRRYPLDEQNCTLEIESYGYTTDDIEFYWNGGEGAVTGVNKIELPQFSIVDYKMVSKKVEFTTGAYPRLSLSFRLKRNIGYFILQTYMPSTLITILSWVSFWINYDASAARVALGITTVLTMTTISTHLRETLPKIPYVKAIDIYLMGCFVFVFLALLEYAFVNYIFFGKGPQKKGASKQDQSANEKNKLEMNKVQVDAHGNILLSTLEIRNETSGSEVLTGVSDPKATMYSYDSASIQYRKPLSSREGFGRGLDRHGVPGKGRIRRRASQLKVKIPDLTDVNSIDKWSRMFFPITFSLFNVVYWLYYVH
T4 sequence (P22723 39-474): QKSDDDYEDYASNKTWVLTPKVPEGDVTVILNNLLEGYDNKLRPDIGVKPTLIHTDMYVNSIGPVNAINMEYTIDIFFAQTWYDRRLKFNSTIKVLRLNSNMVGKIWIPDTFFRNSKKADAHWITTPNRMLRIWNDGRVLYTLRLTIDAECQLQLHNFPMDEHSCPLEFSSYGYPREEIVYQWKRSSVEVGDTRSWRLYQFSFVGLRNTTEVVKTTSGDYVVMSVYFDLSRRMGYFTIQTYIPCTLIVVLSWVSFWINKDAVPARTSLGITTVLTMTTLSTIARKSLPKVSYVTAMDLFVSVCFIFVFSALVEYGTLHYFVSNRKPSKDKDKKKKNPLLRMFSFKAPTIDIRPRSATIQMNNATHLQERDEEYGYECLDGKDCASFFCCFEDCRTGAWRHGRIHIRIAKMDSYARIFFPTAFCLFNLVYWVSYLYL
Protocol: as §2, §3

[5] = target: T5, α1V256Sβ2γ2L GABAA receptors (UniProt P22723+P62813+P63138, V283S); assay: Patch-clamp of mutant α1V256Sβ2γ2L GABAAR in HEK293 cells; assay type: cell-based, rat α1V256S, rat β2, mouse γ2L
T5 construct: expressed in transfected cells; host or cells: HEK293
T5 sequence (P62813 28-455 V283S): as the sequence (P62813 28-455) above, with V256S counted along it
T5 sequence (P63138 25-474 limits assumed): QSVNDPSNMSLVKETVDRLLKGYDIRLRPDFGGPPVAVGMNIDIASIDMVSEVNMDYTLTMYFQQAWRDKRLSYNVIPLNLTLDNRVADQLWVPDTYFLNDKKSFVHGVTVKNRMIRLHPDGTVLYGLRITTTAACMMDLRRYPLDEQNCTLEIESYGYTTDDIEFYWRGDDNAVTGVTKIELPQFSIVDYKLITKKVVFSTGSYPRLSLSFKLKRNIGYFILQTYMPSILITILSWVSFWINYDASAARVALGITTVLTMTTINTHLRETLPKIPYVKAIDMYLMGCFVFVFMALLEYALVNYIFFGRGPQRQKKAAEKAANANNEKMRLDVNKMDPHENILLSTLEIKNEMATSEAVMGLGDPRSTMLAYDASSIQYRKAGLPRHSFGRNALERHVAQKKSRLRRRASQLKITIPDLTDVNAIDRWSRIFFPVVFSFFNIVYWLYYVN
T5 sequence (P22723 39-474): as the sequence (P22723 39-474) above
Protocol: as §2, §3

[6] = target: T6, α1Q241L mutant α1β2γ2L GABAA receptors (UniProt P22723+P62813+P63138, Q268L); assay: Patch-clamp of mutant α1Q241L-containing α1β2γ2L GABAAR in HEK293 cells; assay type: cell-based, rat α1Q241L, rat β2, mouse γ2L; conditions: UDCA 100 µM, 500 µM GABA, n = 5
T6 construct: expressed in transfected cells; host or cells: HEK293
T6 sequence (P62813 28-455 Q268L): as the sequence (P62813 28-455) above, with Q241L counted along it
T6 sequence (P63138 25-474 limits assumed): as the sequence (P63138 25-474 limits assumed) above
T6 sequence (P22723 39-474): as the sequence (P22723 39-474) above
Protocol: as §2, §3

[7] = design: method as in PMID 11248487; conditions: volunteers (men), single oral dose ∼12 mg/kg; cited from earlier work

Structure (SMILES): C[C@H](CCC(=O)O)[C@H]1CC[C@H]2[C@@H]3[C@@H](O)C[C@@H]4C[C@H](O)CC[C@]4(C)[C@H]3CC[C@]12C [UDCA, ursodeoxycholic acid]
- firing at the end of UDCA application (TMN neurons): 86±5 % of control
- synchronicity of firing within the hypothalamic network (Cohen's kappa) ([1]; UDCA): increased
- firing frequency ([1]; UDCA 10, 30 or 100 µM): not affected
- effect on synchronization in the presence of gabazine ([1]; with GABAA receptor antagonist gabazine): abolished
- UDCA-induced synchronization of firing with mifepristone and spironolactone ([1]; with mifepristone 10 µM and spironolactone 10 µM): not affected
- IC50 [2]: 90 ± 5 µM
- current amplitude at +50 mV in the presence of UDCA (GABAA receptor): 69±5 % of control (−50 mV)
- fraction of the transmembrane field sensed at the acceptor site (f) (GABAA receptor; Woodhull fit, Eq. 3): 0.29±0.03
- Kd (GABAA receptor; Woodhull fit, Eq. 3, read-out: KD(0), dissociation constant at 0 mV): 64 µM
- stationary GABA current in the presence of UDCA relative to unblocked current (GABAA receptor; at +50 mV): 28±2%
- stationary GABA current in the presence of UDCA relative to unblocked current (GABAA receptor; at −50 mV): 59±2%
- AMPA-receptor mediated currents (AMPA-receptor; 100 µM): did not affect
- AMPA-receptor mediated currents (responses to 150 µM of kainate) (AMPA-receptor; up to […]): did not affect
- Hill coefficient nH of UDCA block (α1β3 GABAA receptors; maximal GABA): 0.65
- IC50 (α1β3 GABAA receptors; read-out: IC50 of block of GABA-evoked steady-state currents): 81 µM
- Hill coefficient nH of UDCA block [3]: 0.8
- IC50 ([3]; read-out: IC50 of block of histamine-evoked currents): 7.4 ± 2 µM
- additivity of outward currents of maximal UDCA (300, 600 µM) and picrotoxin (25 µM) [4]: not additive
- IC50 ([4]; roughly estimated, read-out: half-maximal effect on outward shift of baseline current): ~100 µM
- IC50 (α1β1γ2L GABAA receptors): 96 ± 17 µM
- relative amplitude of maximal GABA-responses ([5]; UDCA 100 µM, n = 5): 87±1 % of control
- IC50 ([5]; n = 4): 330 ± 41 µM
- maximal steady-state GABA current [6]: 54±2 % of control
- serum peak UDCA concentration [7]: ~18 ± 10 µM
